Where “and” joins values, the source holds several entries; their conditions need not be identical. Equal entries are not always repeated.
Experiments:
[1] = test system: db/db mice; test: Glucose tolerance test (GTT); assay type: in vivo; settings: 150mg/kg
[2] = test system: db/db mice; test: Insulin tolerance test (ITT), AUC and initial slope; assay type: in vivo; settings: db/db mice, IBU 150mg/kg
Method: (§1) Mice were fasted for 4 h for insulin resistance test and intraperitoneally injected with 1 unit/kg of insulin. Blood glucose levels were measured from the tail vein blood at 0, 15, 30, 45, 60, 90, and 120 min after injection. Plasma insulin levels were measured using an ultrasensitive mouse insulin ELISA kit (Nanjing Jiancheng Bioengineering Institute, Nanjing, China).

[3] = pH of the solution after 24 hours of the dissolution test; assay type: physicochemical
Method: Solubilities were determined by adding excess sample to 30 mL different mediums, such as HCl solution, acetate buffer, phosphate buffer, SGF, FaSSIF and FeSSIF. The configuration of various buffer solutions is shown in Supplementary Table 2. After being shaken at 400 rpm at 37 °C for 0.5, 1, 2, and 24 h, 0.3 mL of suspension was sampled and centrifuged at 14,000 rpm for 8 min to isolate mother liquor, and then analyzed by HPLC after dilution. All samples were analyzed in triplicate. […]
into a 1000 mL flask followed by addition of about 800 mL of deionized water. The mixture is stirred until all solids are dissolved.
Add about 100 mL of 0.1 N HCl, check pH value with a pH meter and adjust the pH to 2.0 with HCl (1 N) or NaOH (1 N). Then dilute to the volume with deionized water.
* 1N sodium hydroxide: Weigh 8 g NaOH in a 200 mL plastic volumetric flask, add deionized water to volume and mix well. […]
phosphate and 3.093 g sodium chloride in a 500 mL volumetric flask, add about 0.450 L deionized water, and adjust the pH to 6.5 with 1N sodium hydroxide or 1 N hydrochloric acid. Make up to volume (0.5 […]
Step 2: Place and dissolve 1.120 g FaSSIF/FeSSIF/FaSSGF instant powder with 0.250 L of buffer (from step 1) in a 500 mL volumetric flask, then add buffer (from step 1) to volume, and mix well. […]
g sodium chloride in a 500 mL volumetric flask, add about 0.450 L deionized water, and adjust the pH to 5.0 with 1 N sodium hydroxide or 1 N hydrochloric acid. Make up to volume (500 mL) with
Step 2: Place and dissolve 5.600 g FaSSIF/FeSSIF/FaSSGF instant […]
0.750 L deionized water. Make up to volume (1000 mL) with deionized water and placed overnight.
(1 picture or pasted object on this page, not shown here)

[4] = test system: db/db mice; test: Fasting serum insulin levels (ELISA); assay type: in vivo; settings: 150mg/kg, individual animals
Method: as §1

[5] = test system: db/db mice; test: HE staining of epididymal adipose tissue, adipocyte size; assay type: in vivo; settings: BJ 75 and 150 mg/kg, BBR 150 mg/kg, Ibu 150 mg/kg
Method: The adipose tissue was fixed overnight in 4% paraformaldehyde, then embedded in paraffin and cut into 5 µm thick slices. Tissue sections were stained with hematoxylin and eosin (H&E). For immunohistochemistry, sections were incubated with primary antibodies against F4/80 (1:100 dilution) diluted in the blocking solution at 4 °C overnight. The tissue sections were then incubated with the horseradish peroxidase (HRP)-conjugated secondary antibody at room temperature for 2 h. Finally, the sections were developed with diaminobenzidine (DAB) and counterstained with hematoxylin. Images were obtained under a microscope. To quantify the F4/80-positive macrophages, two random fields per sample were analyzed by Image J software. The IHC profiler plugin of ImageJ was used to calculate the F4/80 positive area.

[6] = test system: db/db mice; test: Fat depots weight (BAT, iWAT, eWAT; percentage of body weight); assay type: in vivo
Method: The lean wild type control and the db/db control mice were given equal vehicle volume (0.5% CMC-Na solution). All mice were monitored for food intake, body weight, and fasting blood glucose during the 35-day trial. Glucose tolerance test (GTT) and insulin resistance test (ITT) were performed at 4 and 5 weeks of treatment, respectively. Metabolic analysis was performed at 5 weeks of treatment. At the end of the study, blood samples were taken through the retroorbital venous sinus of mice, fat depots (brown fat, inguinal subcutaneous fat, epididymal fat, perirenal fat and mesenteric fat depot) were dissected, weighed, and immediately frozen in liquid nitrogen and stored at −80 °C until required. Weight of fat depots are expressed in percentage (fat depots weight /bodyweight * 100%).

CC(C)Cc1ccc(C(C)C(=O)O)cc1 (stereo not shown) [Ibu, Ibuprofen, reference compound]
Blood Glucose (Figure S9p) ([1]; time 0, individual animals): 23.3 mmol/L and 18.9 mmol/L and 18.7 mmol/L and 22.0 mmol/L | Blood Glucose (Figure S9p) ([1]; time 15, individual animals): 33.3 mmol/L | Blood Glucose (Figure S9p) ([1]; time 30, individual animals): 33.3 mmol/L | Blood Glucose (Figure S9p) ([1]; time 45, individual animals): 33.3 mmol/L | Blood Glucose (Figure S9p) ([1]; time 60, individual animals): 33.3 mmol/L and 31.7 mmol/L and 32.4 mmol/L | Blood Glucose (Figure S9p) ([1]; time 90, individual animals): 33.3 mmol/L and 29.2 mmol/L and 22.9 mmol/L | Blood Glucose (Figure S9p) ([1]; time 120, individual animals): 30.3 mmol/L and 22.8 mmol/L and 23.9 mmol/L | Blood Glucose ([2]; times 0, individual animals (Figure S9p/S9r)): 22.4 mmol/L and 22.3 mmol/L and 22.8 mmol/L | Blood Glucose ([2]; times 15, individual animals (Figure S9p/S9r)): 24.0 mmol/L | Blood Glucose ([2]; times 30, individual animals (Figure S9p/S9r)): 19.6 mmol/L and 21.3 mmol/L and 20.3 mmol/L and 18.8 mmol/L | Blood Glucose ([2]; times 45, individual animals (Figure S9p/S9r)): 13.8 mmol/L and 18.5 mmol/L and 19.5 mmol/L and 17.5 mmol/L and 15.3 mmol/L and 15.6 mmol/L | Blood Glucose ([2]; times 60, individual animals (Figure S9p/S9r)): 15.0 mmol/L and 13.2 mmol/L and 20.4 mmol/L and 15.7 mmol/L | Blood Glucose ([2]; times 90, individual animals (Figure S9p/S9r)): 15.6 mmol/L and 21.3 mmol/L and 21.6 mmol/L and 14.9 mmol/L and 15.0 mmol/L | Blood Glucose ([2]; times 120, individual animals (Figure S9p/S9r)): 18.2 mmol/L and 22.9 mmol/L and 18.8 mmol/L and 16.9 mmol/L and 15.3 mmol/L | pH of the solution after 24 hours ([3]; Acetate buffer, blank vehicle 4.54): 4.56 | pH of the solution after 24 hours ([3]; CMC-Na, blank vehicle 6.51): 5.57 | pH of the solution after 24 hours ([3]; FaSSIF-v1, blank vehicle 6.51): 6.04 | pH of the solution after 24 hours ([3]; FeSSIF-v1, blank vehicle 5.04): 5.05 | pH of the solution after 24 hours ([3]; HCl solution, blank vehicle 1.08): 1.07 | pH of the solution after 24 hours ([3]; Phosphate buffer, blank vehicle 6.84): 6.60 | pH of the solution after 24 hours ([3]; SGF, blank vehicle 2.03): 2.00 | Insulin [4]: 16.07 mIU/L and 14.41 mIU/L and 14.02 mIU/L and 15.71 mIU/L and 12.42 mIU/L and 14.35 mIU/L | Size of adipocytes in eWAT compared with vehicle [5]: not significantly different | Fat Depots Weight, BAT ([6]; 150mg/kg, individual animals): 1.27 g and 2.12 g and 1.64 g and 1.62 g and 1.65 g and 1.78 g | Fat Depots Weight, eWAT ([6]; 150mg/kg, individual animals): 3.22 g and 3.09 g and 3.41 g and 3.43 g and 3.15 g and 3.78 g | Fat Depots Weight, iWAT ([6]; 150mg/kg, individual animals): 3.71 g and 3.4 g and 3.36 g and 4.03 g and 3.78 g and 4.01 g | Fat depots weight / body weight ([6]; 150mg/kg, individual animals): 19.7809% and 19.1502% and 20.6641% and 20.9797% | Fat depots weight compared with vehicle ([6]; db/db mice, BJ 75 and 150 mg/kg, BBR 150 mg/kg, Ibu 150 mg/kg): not significantly different
